Results from patent US20060040871A1, “Bacterial transforming agent” (priority 2003, published 2006).
Read-outs that look alike come from different tables or passages of the source.

Assays:
MRSA [1] = experiment: MIC of ceftazidime or cefuroxime for MRSA grown with or without GBE (Table 2); type: cell-based, Staphylococcus aureus; details: for MIC of ceftazidime / MIC of cefuroxime: GBE (0.2%)
Excerpt: Importantly, the usefulness of the agents of the present invention is not limited to increasing bacterial sensitivity to methicillin.

[2] = system: MRSA with intermediate resistance to glycopeptides; experiment: MIC of vancomycin or teicoplanin for MRSA with intermediate resistance to glycopeptides grown with GBE or NAGly (Table 4); type: cell-based, Staphylococcus aureus; details: GBE 0.001M; for MIC: Staphylococcus aureus
S. aureus = experiment: MIC of methicillin for already sensitive S. aureus with GBE, with or without 1% human plasma (Table 6); type: cell-based, Staphylococcus aureus; details: for MIC of methicillin: GBE 0.00075M [0.15%]
Excerpt: As previously mentioned, a common cause of auto-infection is due to S. aureus carried on the anterior nares. […] The transforming agents of the present invention may also be used in combination with a suitable antimicrobial to eliminate nasal carriage of MSSA prior to cardiac surgery or other invasive procedures carrying a high risk of auto-infection.

MRSA [3] = experiment: Antimicrobial plus BTA against recent clinical MRSA isolates (Table 7); type: cell-based, Staphylococcus aureus
Excerpt: The four clinical isolates were isolated from patients during the first three months of 2003. […] An intermediate MRSA has been included, as methicillin-resistance has been achieved by means other than production of PBP2a.

VRE = experiment: Antimicrobial plus BTA against VRE (Table 7); type: cell-based, enterococci; details: +BTA 1.0%
MRSA [4] = details: increasing concentrations of glycine in the growth medium; cited from earlier work

NCC(=O)OCc1ccccc1 [GBE, Glycine Benzyl Ester]
MIC of ceftazidime (MRSA [1]; CD40 (EMRSA-1)): 4 µg/mL
MIC of cefuroxime (MRSA [1]; CD40 (EMRSA-1)): 2 µg/mL
MIC of ceftazidime (MRSA [1]; DS09 (EMRSA-1)): 2 µg/mL
MIC of cefuroxime (MRSA [1]; DS09 (EMRSA-1)): 2 µg/mL
MIC of ceftazidime (MRSA [1]; E15-97 (EMRSA-15)): 4 µg/mL
MIC of cefuroxime (MRSA [1]; E15-97 (EMRSA-15)): 4 µg/mL
MIC of ceftazidime (MRSA [1]; E16-96 (EMRSA-16)): 2 µg/mL
MIC of cefuroxime (MRSA [1]; E16-96 (EMRSA-16)): 4 µg/mL
MIC of ceftazidime (MRSA [1]; JF1-32 (EMRSA-1)): 2 µg/mL
MIC of cefuroxime (MRSA [1]; JF1-32 (EMRSA-1)): 2 µg/mL
MIC of ceftazidime (MRSA [1]; MC01 (EMRSA-1)): 2 µg/mL
MIC of cefuroxime (MRSA [1]; MC01 (EMRSA-1)): 4 µg/mL
MIC of ceftazidime (MRSA [1]; NCTC 12493): 2 µg/mL
MIC of cefuroxime (MRSA [1]; NCTC 12493): 4 µg/mL
MIC of ceftazidime (MRSA [1]; PS3-32 (EMRSA-1)): 4 µg/mL
MIC of cefuroxime (MRSA [1]; PS3-32 (EMRSA-1)): 4 µg/mL
MIC of ceftazidime (MRSA [1]; SN31 (EMRSA-1)): 4 µg/mL
MIC of cefuroxime (MRSA [1]; SN31 (EMRSA-1)): 4 µg/mL
MIC of ceftazidime (MRSA [1]; ST11 (EMRSA-1)): 2 µg/mL
MIC of cefuroxime (MRSA [1]; ST11 (EMRSA-1)): 2 µg/mL
MIC of ceftazidime (MRSA [1]; SW2-32 (EMRSA-1)): 4 µg/mL
MIC of cefuroxime (MRSA [1]; SW2-32 (EMRSA-1)): 4 µg/mL
transformation to ceftazidime and cefuroxime sensitivity (MRSA [1]; Table 2): transforms the MRSA tested to ceftazidime and cefuroxime sensitivity
MIC of vancomycin ([2]; L266 (first line), EMRSA-17 (VISA)): 2 µg/mL
MIC of vancomycin ([2]; L266 (second line), EMRSA-17 (VISA)): 1 µg/mL
MIC of vancomycin ([2]; NCTC 12493): 0.12 µg/mL
MIC ([2]; MRSA / NCTC 12493, read-out: MIC of teicoplanin, NCTC 12493): 0.06 µg/mL
MIC ([2]; MRSA, read-out: MIC of teicoplanin, L265, EMRSA-16 (TISA)): 1 µg/mL
MIC ([2]; MRSA, read-out: MIC of teicoplanin, L266, EMRSA-16 (TISA)): 2 µg/mL
MIC of methicillin (S. aureus; 5518 (EMRSA-1), no plasma): <0.25 µg/mL
MIC of methicillin (S. aureus; 5518 (EMRSA-1), plasma (1%)): 0.5 µg/mL
MIC of methicillin (S. aureus; LHS77, no plasma): <0.25 µg/mL
MIC of methicillin (S. aureus; LHS77, plasma (1%)): <0.25 µg/mL
MIC of methicillin (S. aureus; LHS78, no plasma): <0.25 µg/mL
MIC of methicillin (S. aureus; LHS78, plasma (1%)): 1 µg/mL
MIC of methicillin (S. aureus; LHS79, no plasma): <0.25 µg/mL
MIC of methicillin (S. aureus; LHS79, plasma (1%)): 0.25 µg/mL
MIC of methicillin (S. aureus; LHS80, no plasma): <0.25 µg/mL
MIC of methicillin (S. aureus; LHS80, plasma (1%)): 0.25 µg/mL
MIC of methicillin (S. aureus; LHS81, no plasma): <0.25 µg/mL
MIC of methicillin (S. aureus; LHS81, plasma (1%)): <0.25 µg/mL
MIC of methicillin (S. aureus; LHS82, no plasma): <0.25 µg/mL
MIC of methicillin (S. aureus; LHS82, plasma (1%)): 4 µg/mL
MIC of methicillin (S. aureus; LHS83, no plasma): <0.25 µg/mL
MIC of methicillin (S. aureus; LHS83, plasma (1%)): 0.25 µg/mL
MIC of methicillin (S. aureus; LHS84, no plasma): <0.25 µg/mL
MIC of methicillin (S. aureus; LHS84, plasma (1%)): 2 µg/mL
MIC of methicillin (S. aureus; LHS85, no plasma): <0.25 µg/mL
MIC of methicillin (S. aureus; LHS85, plasma (1%)): 0.5 µg/mL
MIC of methicillin (S. aureus; LHS86, no plasma): <0.25 µg/mL
MIC of methicillin (S. aureus; LHS86, plasma (1%)): 0.25 µg/mL
MIC of methicillin (S. aureus; LHS87, no plasma): <0.25 µg/mL
MIC of methicillin (S. aureus; LHS87, plasma (1%)): 4 µg/mL
MIC of methicillin (S. aureus; LHS88, no plasma): <0.25 µg/mL
MIC of methicillin (S. aureus; LHS88, plasma (1%)): 0.5 µg/mL
MIC of methicillin (S. aureus; LHS89, no plasma): <0.25 µg/mL
MIC of methicillin (S. aureus; LHS89, plasma (1%)): 0.5 µg/mL
MIC of methicillin (S. aureus; LHS90, no plasma): <0.25 µg/mL
MIC of methicillin (S. aureus; LHS90, plasma (1%)): <0.25 µg/mL
MIC of methicillin (S. aureus; LHS91, no plasma): <0.25 µg/mL
MIC of methicillin (S. aureus; LHS91, plasma (1%)): <0.25 µg/mL
MIC of methicillin (S. aureus; LHS92, no plasma): <0.25 µg/mL
MIC of methicillin (S. aureus; LHS92, plasma (1%)): 1 µg/mL
MIC of methicillin (S. aureus; LHS93, no plasma): <0.25 µg/mL
MIC of methicillin (S. aureus; LHS93, plasma (1%)): 0.5 µg/mL
MIC of methicillin (S. aureus; LHS94, no plasma): <0.25 µg/mL
MIC of methicillin (S. aureus; LHS94, plasma (1%)): 0.5 µg/mL
effect on methicillin sensitivity of already sensitive bacteria (S. aureus; Table 6): increases the sensitivity of already sensitive bacteria to methicillin
Oxacillin (antimicrobial plus BTA; quantity not named, MIC implied) (MRSA [3]; EMRSA-16, +BTA 0.01%): 4 µg/mL
Cephalexin (antimicrobial plus BTA; quantity not named, MIC implied) (MRSA [3]; EMRSA-16, +BTA 0.1%): 2 µg/mL
Oxacillin (antimicrobial plus BTA; quantity not named, MIC implied) (MRSA [3]; EMRSA-16, +BTA 0.1%): 2 µg/mL
Cephalexin (antimicrobial plus BTA; quantity not named, MIC implied) (MRSA [3]; EMRSA-16, +BTA 1.0%): 1 µg/mL
Oxacillin (antimicrobial plus BTA; quantity not named, MIC implied) (MRSA [3]; EMRSA-16, +BTA 1.0%): 1 µg/mL
Vancomycin (antimicrobial plus BTA; quantity not named, MIC implied) (MRSA [3]; EMRSA-16, +BTA 1.0%): 0.25 µg/mL
Oxacillin (antimicrobial plus BTA; quantity not named, MIC implied) (MRSA [3]; EMRSA-17, +BTA 0.01%): 6 µg/mL
Cephalexin (antimicrobial plus BTA; quantity not named, MIC implied) (MRSA [3]; EMRSA-17, +BTA 0.1%): 2 µg/mL
Oxacillin (antimicrobial plus BTA; quantity not named, MIC implied) (MRSA [3]; EMRSA-17, +BTA 0.1%): 2 µg/mL
Cephalexin (antimicrobial plus BTA; quantity not named, MIC implied) (MRSA [3]; EMRSA-17, +BTA 1.0%): 1.5 µg/mL
Oxacillin (antimicrobial plus BTA; quantity not named, MIC implied) (MRSA [3]; EMRSA-17, +BTA 1.0%): 1.5 µg/mL
Vancomycin (antimicrobial plus BTA; quantity not named, MIC implied) (MRSA [3]; EMRSA-17, +BTA 1.0%): 0.25 µg/mL
Oxacillin (antimicrobial plus BTA; quantity not named, MIC implied) (MRSA [3]; I-MRSA, +BTA 0.01%): 2 µg/mL
Cephalexin (antimicrobial plus BTA; quantity not named, MIC implied) (MRSA [3]; I-MRSA, +BTA 0.1%): 1 µg/mL
Oxacillin (antimicrobial plus BTA; quantity not named, MIC implied) (MRSA [3]; I-MRSA, +BTA 0.1%): 1 µg/mL
Cephalexin (antimicrobial plus BTA; quantity not named, MIC implied) (MRSA [3]; I-MRSA, +BTA 1.0%): 0.75 µg/mL
Oxacillin (antimicrobial plus BTA; quantity not named, MIC implied) (MRSA [3]; I-MRSA, +BTA 1.0%): 0.75 µg/mL
Vancomycin (antimicrobial plus BTA; quantity not named, MIC implied) (MRSA [3]; I-MRSA, +BTA 1.0%): < 0.25 µg/mL
Vancomycin (antimicrobial plus BTA; quantity not named, MIC implied) (VRE): 64 µg/mL

NCC(=O)O [Glycine, glycine]
effect on MIC of methicillin against MRSA (MRSA [4]): reduces the MIC of methicillin against MRSA
